Data: US4560690A, “2-(N-substituted guanidino)-4-hetero-arylthiazole antiulcer agents” (Pfizer Inc., priority 1984, dated 1985)

Tests used:
histamine-H2 receptor = target: T1, histamine-H2 receptor (Cavia porcellus, UniProt P47747); assay: Histamine-H2 antagonist activity in isolated guinea pig right atria (pA2); format: cell-based, Guinea pigs; conditions: Krebs-Henseleit buffer pH 7.4, 32°±2° C., histamine dose-response, * tested as the dihydrobromide salt, read-out: pA2 (apparent dissociation constant of the H2-receptor antagonist) (converted)
T1 construct: the heart removed and the right atria dissected free; from tissue; host or cells: guinea pig right atria (isolated, spontaneously beating)
Experimental: The histamine-H2 antagonist activity of compounds of the present invention was determined by the following procedure:
Guinea pigs are killed rapidly with a blow to the head, the heart removed and the right atria dissected free. Atria are suspended, isometrically, in a temperature-controlled (32°±2° C.) tissue bath (10 ml) containing oxygenated (95% O2; 5% CO2) Krebs-Henseleit buffer (pH 7.4) and are allowed to stabilize approximately one hour during which time the tissue bath is flushed several times. Individual atrial contractions are followed with a force-displacement transducer connected to a cardiotachometer and Grass polygraph recorder. After obtaining a dose-response curve to histamine, the bath containing each atrium is flushed several times with fresh buffer and the atria reequilibrated to basal rates. Following the return to basal rate, test compounds are added at selected final concentrations and the histamine dose-response curve is again determined in the presence of antagonist. Results are expressed as dose-ratios, the ratio of histamine concentrations required to produce one-half of maximal stimulation in the presence and absence of antagonist, and the apparent dissociation constant of the H2 -receptor antagonist pA2, is determined.

[1] = system: gastric acid secretion (pentagastrin-stimulated acid output from the gastric pouch); assay: Gastric acid antisecretory activity in pentagastrin-stimulated conscious Heidenhain pouch dogs; format: in vivo; conditions: Canis lupus familiaris; for inhibition in vivo at up to 2 mg/kg: at the same (oral 2 mg/kg) or a lower dose; for inhibition in vivo at 2 mg/kg: oral dose of 2 mg/kg, Heidenhain pouch dogs, pentagastrin
Experimental: The gastric acid antisecretory activity of compounds of the present invention was determined in overnight fasted, conscious Heidenhain pouch dogs. Pentagastrin (Pentavolon-Ayerst) was used to stimulate acid output by continuous infusion into a superficial leg vein at doses earlier determined to stimulate near maximal acid output from the gastric pouch. Gastric juice was collected at 30 minute intervals following the start of a pentagastrin infusion and measured to the nearest 0.1 ml. Ten collections were taken for each dog during an experiment. Acid concentration was determined by tritrating 1.0 ml of gastric juice to pH 7.4 with 0.1N sodium hydroxide using an Autoburette and a glass electrode pH meter (Radiometer).
Drug or vehicle was given intravenously or orally 90 minutes following the start of the pentagastrin infusion, at a dose of 2 mg/kg or less. Gastric acid antisecretory effects were calculated by comparing the lowest acid output after drug administration with the mean acid output immediately before drug.

[2] = system: ethanol-induced gastric ulceration; assay: Inhibition of ethanol-induced ulceration in rats; format: in vivo, male rats; conditions: for cytoprotection (inhibition of ethanol-induced ulceration): same dosage, 30 mg/kg oral
Experimental: The antiulcer activity of the products of this invention was also determined by an ethanol-induced rat ulcer assay. In this test, overnight fasted male rats are given drug (at 30 or 3 mg/kg) or water orally fifteen minutes prior to an orally administered dose of absolute ethanol (1.0 ml). One hour after the ethanol challenge the animals (8/group) are killed and the stomachs examined for the presence of lesions. After sacrifice the abdomen is opened and a locking hemostat placed at the pylorus. Six ml of a 4% solution of formaldehyde was injected into the stomach with a gastric feeding tube and a second locking hemostat was used to seal the esophagus. The stomach was removed, opened along the greater curvature and examined for ulceration.
The scoring system used to quantitate the ethanol-induced lesions is given below.
For each group of animals an ulcer index is calculated as follows:
Ulceration Index=(the sum of the scores of the group)×(the sum of the number of ulcers in the group)×(the fraction of the group having any incidence of ulceration).
The percentage inhibition of ulcers is calculated as follows:
% Inhibition=100×[(ulcer index controls)-(ulcer index
drug-treated)].div.(ulcer index controls).

[3] = * tested as the dihydrobromide salt
[4] = oral dose of 3 mg/kg, * tested as the dihydrobromide salt
[5] = oral dose of 30 mg/kg, fifteen minutes prior to absolute ethanol

T1 sequence (P47747 whole entry): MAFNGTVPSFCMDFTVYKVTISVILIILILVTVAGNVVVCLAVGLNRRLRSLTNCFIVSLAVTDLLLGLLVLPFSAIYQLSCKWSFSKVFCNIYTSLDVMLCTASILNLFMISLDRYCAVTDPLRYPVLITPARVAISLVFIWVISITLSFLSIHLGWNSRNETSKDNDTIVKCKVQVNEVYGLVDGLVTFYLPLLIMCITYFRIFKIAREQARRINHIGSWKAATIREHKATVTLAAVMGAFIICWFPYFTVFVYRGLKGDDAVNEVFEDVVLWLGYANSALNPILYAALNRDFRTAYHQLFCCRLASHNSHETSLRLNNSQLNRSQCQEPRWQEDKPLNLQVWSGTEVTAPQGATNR

Row | Kb (histamine-H2 receptor) [nM] | SMILES | inhibition in vivo at 0.1 mg/kg ([1]; iv, dose of 0.1 mg/kg (i.v.), * tested as the dihydrobromide salt) [%] | inhibition in vivo at up to 2 mg/kg [1, 3] [%] | inhibition of ethanol-induced ulceration [2, 4] | cytoprotection (inhibition of ethanol-induced ulceration) [2] [%] | inhibition of ethanol-induced ulceration [2, 5] | inhibition in vivo at 2 mg/kg [1] [%]
1 | ≤ 63.1 | CCCCCCNC(N)=Nc1nc(-c2c[nH]c(C)n2)cs1 [Example 5*] | 58 | ≥ 64 | – | – | – | –
2 | ≤ 63.1 | CCCCCCC(C)NC(=N)Nc1nc(-c2c[nH]c(C)n2)cs1 (stereo not shown) [Example 6b, N-[4-(2-methylimidazol-4-yl)thiazol-2-yl]-N'-2-octylguanidine] | – | ≥ 64 | at least 40% | – | – | –
3 | ≤ 126 | CCCCCNC(N)=Nc1nc(-c2c[nH]c(C)n2)cs1 [Example 6c] | – | ≥ 64 | – | ≥ 90 | – | –
4 | ≤ 63.1 | CCCCCCCNC(N)=Nc1nc(-c2c[nH]c(C)n2)cs1 [Example 6f] | – | – | – | ≥ 90 | at least 77% | ≥ 24
5 | ≤ 126 | CCCCCCCCNC(N)=Nc1nc(-c2c[nH]c(C)n2)cs1 [Example 6g] | – | – | – | – | – | ≥ 24

The next lines start with the molecule.

Row | SMILES | Kb (histamine-H2 receptor) [nM] | inhibition in vivo at 0.1 mg/kg ([1]; iv, dose of 0.1 mg/kg (i.v.), * tested as the dihydrobromide salt) [%] | inhibition in vivo at up to 2 mg/kg [1, 3] [%] | inhibition of ethanol-induced ulceration [2, 4] | cytoprotection (inhibition of ethanol-induced ulceration) [2] [%] | inhibition of ethanol-induced ulceration [2, 5] | inhibition in vivo at 2 mg/kg [1] [%]
6 | Cc1nc(-c2csc(NC(=N)NCc3ccccc3)n2)c[nH]1 [Example 6a, N-[4-(2-methylimidazol-4-yl)thiazol-2-yl]-N'-benzylguanidine] | ≤ 63.1 | – | – | – | – | – | –
7 | CCCCCCC(C)NC(=N)Nc1nc(-c2c[nH]c(C)n2)cs1 (stereo not shown) [Example 6j, N-[4-(2-methylimidazol-4-yl)thiazol-2-yl]-N'-2-octylguanidine] | – | – | – | – | – | at least 77% | –
8 | Cc1nc(-c2csc(NC(=N)NCc3ccccc3)n2)c[nH]1 [Example 6l, N-[4-(2-methylimidazol-4-yl)thiazol-2-yl]-N'-benzylguanidine] | – | – | ≥ 64 | at least 40% | – | at least 77% | –
9 | Cc1nc(-c2csc(N=C(N)NCCc3ccccc3)n2)c[nH]1 [Example 6m] | ≤ 63.1 | – | ≥ 64 | – | – | at least 77% | –
10 | Cc1nc(-c2csc(N=C(N)NCCCc3ccccc3)n2)c[nH]1 [Example 6n] | ≤ 63.1 | – | – | – | – | – | ≥ 24
11 | Cc1nc(-c2csc(N=C(N)NCCCCc3ccccc3)n2)c[nH]1 [Example 6o] | – | – | – | – | ≥ 90 | at least 77% | ≥ 24
